US20070129426A1, “Therapeutic drugs for arthritis” (Shanghai Ambrosia Pharmaceutical Co., Ltd., priority 2003, published 2007)

Experiments:
[1] = system: acute inflammation of mice ear caused by dimethylbenzene; assay: Mice ear inflammation caused by dimethylbenzene; format: in vivo, Kunming mice; conditions: for Difference (mg) between left and right ear: 4 days, 2 h after dimethylbenzene, n=10
Method: Experimental animal: Kunming mice, body weight 18-22 g.
Method of administration: intraperitoneal injection. The doses of wedelolactone were 12.5 mg/kg and 25 mg/kg, respectively; the negative control used 0.5% CMC; the positive control used ibuprofen (25 mg/kg).
Method of experiment: The animals were divided randomly into 4 groups based on their body weights, 10 mice each group. The mice were administered with the test compound for 4 continuous days. On Day 4, both sides of the right ears of the mice were daubed evenly with 50 μl dimethylbenzene 2 hours after the administration. The left ears were not treated. The mice were left for 2 hours and then sacrificed by cervical dislocation. The ear specimens were obtained by punching both ears with a 8 mm hole-puncher. The specimens were weighed and the differences between the left and the right ears were used to evaluate the effect of the compound on the inflammation.

[2] = system: adjuvant-induced arthritis of rats; assay: Adjuvant-induced arthritis of rats; format: in vivo, Male Wistar rats; conditions: for Left front paw thickness, Day 5 / Right front paw thickness, Day 5 / Right hind paw thickness, Day 5 / Right hind paw volume, Day 5 / Left hind paw thickness, Day 5 / Left hind paw volume, Day 5: day 5 after administration; for Left hind paw thickness, Day 5 / Left hind paw volume, Day 5 / Left hind paw thickness, Day 10 / Left hind paw volume, Day 10 / Left hind paw thickness, Day 15 / Left hind paw volume, Day 15 / Left hind paw thickness, Day 19 / Left hind paw volume, Day 19: adjuvant-injected paw; for Left front paw thickness, Day 10 / Right front paw thickness, Day 10 / Right hind paw thickness, Day 10 / Right hind paw volume, Day 10 / Left hind paw thickness, Day 10 / Left hind paw volume, Day 10: day 10 after administration; for Left front paw thickness, Day 15 / Right front paw thickness, Day 15 / Right hind paw thickness, Day 15 / Right hind paw volume, Day 15 / Left hind paw thickness, Day 15 / Left hind paw volume, Day 15: day 15 after administration; for Left front paw thickness, Day 19 / Right front paw thickness, Day 19 / Right hind paw thickness, Day 19 / Right hind paw volume, Day 19 / Left hind paw thickness, Day 19 / Left hind paw volume, Day 19: day 19 after administration
Method: Experimental animal: Male Wistar rats. Body weights were about 150 g.
Method of administration: intraperitoneal injection. The dose of wedelolactone was 0.25 mg/kg or 12.5 mg/kg, prepared in 0.5% CMC. The dose of methotrexate (MTX) is 0.2 mg/kg.
Method of experiment: The animals were divided randomly into 4 groups based on their body weights. They were adapted for 3 days before experiments. The left hind planta of the rats were injected subcutaneously with 0.1 ml CFA emulsion to induce inflammation. On the Day 10, after the administration of the adjuvant, the rats were injected intraperitoneally with 5 ml/kg test compound wedelolactone for 19 continuous days. On and after the day of administration of the adjuvant, the change of thickness of the four rat paws was measured daily using a vernier caliper, and the volume of the back paw were measured using a Plethysmometer. The data from day 5, 10, 15, and 19 after administration were used for statistic analyses.

[3] = system: collagen-induced rat arthritis; assay: Collagen-induced rat arthritis (joint surface temperature, inflammation score); format: in vivo, Male Wistar rats; conditions: for inflammation score, Day 10 / inflammation score, Day 20 / inflammation score, Day 30: highest total score 16 points; for Joint surface temperature difference (° C.), Day 10: day 10 after first immunization; for Joint surface temperature difference (° C.), Day 20: day 20 after first immunization; for Joint surface temperature difference (° C.), Day 30: day 30 after first immunization
Method: (§1) Experimental animal: Male Wistar rats. Body weights were about 120 g.
(§2) Administration method: intraperitoneal injection. The dose of wedelolactone is 6 or 12 mg/kg. Negative control used 0.5% CMC.
Experimental methods: 1). Preparation of type-II collagen. The fresh calf cartilages were ground at 4° C., immersed and washed with Tris-HCL2. The left residue was digested with pepsin. The supernatant was collected and salted out, followed by chromatography with DE-52 column to obtain type-II collagen. The collagen were dissolved in glacial acetic acid and mixed with Freund's adjuvant by grounding. Each of the animals, except the controls, was subcutaneously injected with a total of 2.5 mg/kg collagen at multiple sites of the tail root and back neck. 7 days thereafter, the animals were boostered by subcutaneous administration with 1.0 mg/kg collagen in the tail root and back neck. The immunized animals were divided randomly into 4 groups based on their body weight, 10 mice in each group. The four groups were modeling blank group, modeling control group, low dose wedelolactone group, and high dose wedelolactone group. The daily administration started at day 10 after the first immunization for 3 weeks continuously. The effects of the drug on the rat rheumatoid arthritis and the delayed-hypersensitivity were recorded. Starting from day 10 after the first immunization, the following data were recorded every 10 days: A) arthritis surface temperature (the surface temperature of both hind leg joints were measured by using a digital temperature recorder, and the temperature differences before and after the immunization was calculated). B) arthritis score (arthritis was scored following the method described in the literature. 1 point: inflammation in one area of paws or planta; 2 points: inflammation in more than two areas of paws or planta; 3 points: mild inflammation in the whole legs; 4 points: severe inflammation causing joint rigidity, deformation and dysfunction. The highest score for each paw is 4 points. The highest total score for each rat is 16 points. C) Delayed-hypersensitivity measurement. At day 24, 10 μl type II collagen containing solution was injected subcutaneously in the back of the right ear of each rat. The thickness of the ear before and 48 hr after the injection was measured.

[4] = system: delayed hypersensitivity of the collagen II-induced arthritic rats; assay: Delayed hypersensitivity of collagen II-induced arthritic rats; format: in vivo, Male Wistar rats; conditions: 48 hr after type II collagen injection
Method: as §1, §2
Experimental methods: 1). Preparation of type-II collagen. The fresh calf cartilages were ground at 4° C., immersed and washed with Tris-HCL2. The left residue was digested with pepsin. The supernatant was collected and salted out, followed by chromatography with DE-52 column to obtain type-II collagen. The collagen were dissolved in glacial acetic acid and mixed with Freund's adjuvant by grounding. Each of the animals, except the controls, was subcutaneously injected with a total of 2.5 mg/kg collagen at multiple sites of the tail root and back neck. […] The effects of the drug on the rat rheumatoid arthritis and the delayed-hypersensitivity were recorded. Starting from day 10 after the first immunization, the following data were recorded every 10 days: A) arthritis surface temperature (the surface temperature of both hind leg joints were measured by using a digital temperature recorder, and the temperature differences before and after the immunization was calculated). B) arthritis score (arthritis was scored following the method described in the literature. […] The thickness of the ear before and 48 hr after the injection was measured.

## COc1cc(O)c2c(c1)oc(=O)c1c3cc(O)c(O)cc3oc21 [wedelolactone]
[1]; 12.5 mg/kg i.p.
  Difference (mg) between left and right ear: 11.3 ± 3.6 mg
[1]; 25 mg/kg i.p.
  Difference (mg) between left and right ear: 10.9 ± 4.6 mg
[1]; 12.5 and 25 mg/kg i.p.
  Inhibition of mice ear inflammation caused by dimethylbenzene: could inhibit the inflammation of the mice ear caused by dimethylbenzene
[2]; 0.25 mg/kg
  Primary inflammation of the left foot and secondary inflammation of the right foot (FIG. 4): prone to be alleviated
[2]; 0.25 mg/kg i.p.
  Left front paw thickness, Day 5: 4.20 ± 0.11 mm
  Right front paw thickness, Day 5: 4.13 ± 0.15 mm
  Right hind paw thickness, Day 5: 5.05 ± 0.24 mm
  Right hind paw volume, Day 5: 1.18 ± 0.05 mL
  Left hind paw thickness, Day 5: 7.10 ± 0.83 mm
  Left hind paw volume, Day 5: 1.85 ± 0.24 mL
  Left front paw thickness, Day 10: 4.71 ± 0.24 mm
  Right front paw thickness, Day 10: 4.66 ± 0.09 mm
  Right hind paw thickness, Day 10: 5.28 ± 0.38 mm
  Right hind paw volume, Day 10: 1.16 ± 0.08 mL
  Left hind paw thickness, Day 10: 8.18 ± 1.22 mm
  Left hind paw volume, Day 10: 2.38 ± 0.30 mL
  Left front paw thickness, Day 15: 4.61 ± 0.10 mm
  Right front paw thickness, Day 15: 4.54 ± 0.15 mm
  Right hind paw thickness, Day 15: 5.15 ± 0.35 mm
  Right hind paw volume, Day 15: 1.29 ± 0.13 mL
  Left hind paw thickness, Day 15: 8.51 ± 0.91 mm
  Left hind paw volume, Day 15: 2.63 ± 0.37 mL
  Left front paw thickness, Day 19: 4.64 ± 0.17 mm
  Right front paw thickness, Day 19: 4.59 ± 0.15 mm
  Right hind paw thickness, Day 19: 5.23 ± 0.23 mm
  Right hind paw volume, Day 19: 1.36 ± 0.12 mL
  Left hind paw thickness, Day 19: 8.49 ± 1.06 mm
  Left hind paw volume, Day 19: 2.61 ± 0.42 mL
[2]; 12.5 mg/kg
  Primary inflammation of the left foot and secondary inflammation of the right foot (FIG. 3): alleviated
[2]; 12.5 mg/kg i.p.
  Left front paw thickness, Day 5: 4.11 ± 0.11 mm
  Right front paw thickness, Day 5: 4.01 ± 0.17 mm
  Right hind paw thickness, Day 5: 4.95 ± 0.27 mm
  Right hind paw volume, Day 5: 1.10 ± 0.10 mL
  Left hind paw thickness, Day 5: 7.13 ± 0.96 mm
  Left hind paw volume, Day 5: 1.64 ± 0.31 mL
  Left front paw thickness, Day 10: 4.03 ± 0.13 mm
  Right front paw thickness, Day 10: 3.95 ± 0.12 mm
  Right hind paw thickness, Day 10: 5.05 ± 0.25 mm
  Right hind paw volume, Day 10: 1.03 ± 0.10 mL
  Left hind paw thickness, Day 10: 8.09 ± 1.05 mm
  Left hind paw volume, Day 10: 2.14 ± 0.45 mL
  Left front paw thickness, Day 15: 4.11 ± 0.16 mm
  Right front paw thickness, Day 15: 4.11 ± 0.16 mm
  Right hind paw thickness, Day 15: 5.20 ± 0.23 mm
  Right hind paw volume, Day 15: 1.24 ± 0.16 mL
  Left hind paw thickness, Day 15: 8.44 ± 1.63 mm
  Left hind paw volume, Day 15: 2.42 ± 0.62 mL
  Left front paw thickness, Day 19: 4.04 ± 0.14 mm
  Right front paw thickness, Day 19: 4.04 ± 0.07 mm
  Right hind paw thickness, Day 19: 4.98 ± 0.10 mm
  Right hind paw volume, Day 19: 1.19 ± 0.08 mL
  Left hind paw thickness, Day 19: 8.53 ± 1.33 mm
  Left hind paw volume, Day 19: 2.46 ± 0.75 mL
[2]; 0.25 or 12.5 mg/kg i.p., 19 days
  Inhibition of rat adjuvant arthritis: could effectively inhibit rat adjuvant arthritis
[3]; 6 mg/kg i.p.
  inflammation score, Day 10: 4.00 ± 2.02
  Joint surface temperature difference (° C.), Day 10: 1.42 ± 0.74 °C
  inflammation score, Day 20: 3.10 ± 1.45
  Joint surface temperature difference (° C.), Day 20: 0.83 ± 0.44 °C
  inflammation score, Day 30: 2.7 ± 1.35
  Joint surface temperature difference (° C.), Day 30: 0.72 ± 0.40 °C
[3]; 12 mg/kg i.p.
  inflammation score, Day 10: 4.10 ± 2.08
  Joint surface temperature difference (° C.), Day 10: 1.36 ± 0.50 °C
  inflammation score, Day 20: 2.00 ± 1.41
  Joint surface temperature difference (° C.), Day 20: 0.73 ± 0.45 °C
  inflammation score, Day 30: 1.40 ± 1.02
  Joint surface temperature difference (° C.), Day 30: 0.48 ± 0.39 °C
[3]; 6 or 12 mg/kg i.p., 3 weeks
  Inhibition of collagen-induced rat arthritis: can effectively inhibit the collagen-induced rat arthritis
[4]; 6 mg/kg i.p.
  Increased thickness of the right ear (mm): 0.231 ± 0.113 mm
[4]; 12 mg/kg i.p.
  Increased thickness of the right ear (mm): 0.194 ± 0.115 mm
